The results in this text go back to patent US7507739B2, “6-[(substituted)phenyl]triazolopyrimidines as anticancer agents” (Wyeth, priority 2003, dated 2009).

Molecules are shown by their SMILES.

One experiment concerns COLO 205 cells. In words: MTS cytotoxicity test with COLO 205 cells. In kind it is cell-based, human. Conditions: Homo sapiens, COLO 205, 72 h, 3 days. As to the method: The assay, which is sold in kit form by Promega (Madison, Wis.; CellTiter 96 AQueous Non-Radioactive Cell Proliferation Assay), is based on the conversion by viable cells, but not by dead cells, of the tetrazolium salt, MTS (3-(4,5-dimethylthiazol-2-yl)-5-(3-carboxymethoxyphenyl)-2-(4-sulphophenyl)-2H-tetrazolium, inner salt), into a water-soluble colored formazan which is detected by spectrophotometry. Compounds are tested at nine concentrations, in order to determine IC50 values. For the test procedure, cells are harvested by trypsinization (or, in the case of non-adherent cells, by simple resuspension), washed, counted and distributed to wells of 96-well flat-bottom microtiter plates at 1000 cells per well in 200 μL of medium. In addition, one row of wells on a separate plate received cells as above (“time 0” plate). All plates are incubated at 37° in humidified 5% CO2 in air for about 24 hr.
On day 2, compounds for test are diluted and added to wells. Compounds are dissolved in DMSO at 10 mg/mL. For each compound, nine serial 2-fold dilutions are prepared in DMSO. Ten μL of each dilution in DMSO is transferred to 100 μL of medium, mixed well, and then 5 μL of this dilution is transferred in quadruplicate to wells containing cells. The final high concentration of each compound is typically 5 μM. Plates are returned to the incubator for three days. At the time of drug addition to the experimental plates, the MTS assay is run on the “time 0” plate. This produced the “time 0 MTS value” which is related to the number of viable cells per well at the time of drug addition.
After three days of culture with test compounds (day 5 overall), the MTS assay is done on all wells of the experimental plates. The absorbance values of the quadruplicate sample wells are averaged and divided by the average of the “time 0” values. The average of control wells without drug, divided by the average “time 0” value, gave the maximal relative increase in MTS color yield due to cell growth during the final three days of culture. The average of control wells with high drug concentration, divided by the “time 0” value, gave the minimal relative color yield for cells that are completely killed. The nine values for each compound are plotted against concentration, and the concentration that produced a relative color yield half way between the maximum and minimum is taken as the IC50 value.
COLO 205 is a human colon carcinoma cell line that is used for comparative testing of the examples of this invention and several reference compounds. This line is sensitive to paclitaxel and vincristine.

For a further experiment, the system named is MAP-rich tubulin. In words: Tubulin polymerization test with MAP-rich tubulin. The class given is biochemical, bovine. The following applies: 0.3 μM compound, 20 min, fold enhancement over control. As to the method: Medium is RPMI-1640 with L-glutamine, supplemented with 10% heat-inactivated fetal calf serum, 100 units/ml penicillin, and 100 μg/ml streptomycin (Gibco, Grand Island, N.Y.). Microtubule-associated protein (MAP)-rich tubulin, containing about 70% tubulin and 30% MAPs (#ML113), and highly purified tubulin (>99% pure, #TL238), both from bovine brain, are obtained from Cytoskeleton, Inc., Denver, Colo. PEM buffer (80 mM piperazine-N,N′-bis[2-ethanesulfonic acid], pH 6.9, 1 mM ethylene glycol-bis(β-aminoethyl ether)-N,N,N′,N′-tetraacetic acid, 1 mM magnesium chloride) and guanosine 5′-triphosphate (GTP) are also obtained from Cytoskeleton. [3H]paclitaxel, specific activity 14.7 Ci/mmol, is purchased from Moravek Biochemicals (Brea, Calif.). [^3H]vinblastine, specific activity 9.60 Ci/mmol and MicroSpin G-50 columns are obtained from Amersham Biosciences (Piscataway, N.J.). […] Other reagents are obtained from Sigma (St. Louis, Mo.).
Two variations of this procedure are done, one using MAP-rich tubulin and one using pure tubulin.
MAP-rich tubulin is dissolved in ice-cold PEM buffer containing 1 mM GTP (GPEM buffer) at a concentration of 1.3 mg/mL. The solution is centrifuged at top speed in an Eppendorf model 5415C microcentrifuge (Brinkmann Instruments, Westbury, N.Y.) for 10 min at […] immediately before use. The tubulin solution is added to wells of a ½-area 96-well plate (Costar No. 3696, Corning, Inc., Corning, N.Y.) already containing the compounds of interest. Each compound is tested in duplicate at a final concentration of 0.3 μM in a volume of 110 μL per well. The final DMSO concentration in all wells is 0.3%. Control reactions, which received compound solvent only, are done in quadruplicate. The plate is put in a SpectraMax Plus plate reader (Molecular Devices Corp. Sunnyvale, Calif.) thermostated at 24° and the absorbance of each well at 340 nm, a measure of the appearance of turbidity due to tubulin polymer formation, is determined every minute for 60 minutes. The absorbance at time 0 for each well is subtracted from each of the subsequent absorbance readings for that well, and then the duplicates are averaged.
In this assay, control reactions with MAP-rich tubulin show an S-shaped absorbance profile characterized by three phases: first, a lag phase during which no change in absorbance occurs; second, a polymerization phase in which absorbance increases; and third, a plateau phase in which absorbance has reached a maximum and little or no further change occurs. Polymerization enhancers such as paclitaxel and docetaxel shorten or eliminate the lag phase, increase the rate of the polymerization phase, and often increase the height of the plateau. […] The compounds of this invention have a taxane-like effect on the polymerization reaction. This has been expressed quantitatively in Table 5 by dividing the mean A340 of each sample at 20 min by the mean A340 of the control at 20 min to give a fold enhancement over control. […] Examples of this invention have factors ranging up to 8.1, with the majority in the 5 to 6-fold range.

For the compound `CNCCOc1cc(F)c(-c2c(Cl)nc3ncnn3c2N[C@@H](C)C(F)(F)F)c(F)c1` [Example 14, 5-Chloro-6-{2,6-difluoro-4-[2-(methylamino)ethoxy]phenyl}-N-[(1S)-2,2,2-trifluoro-1-methylethyl][1,2,4]triazolo[1,5-a]pyrimidin-7-amine], the IC50 in the experiment with COLO 205 cells worked out at 881 nM. Besides, the “A340 Compound/A340 Control” value in the experiment on MAP-rich tubulin is given as 1.5.
`C[C@H](Nc1c(-c2c(F)cc(OCCCN3CCCCC3)cc2F)c(Cl)nc2ncnn12)C(F)(F)F` [Example 10, 5-Chloro-6-[2,6-difluoro-4-(3-piperidin-1-ylpropoxy)phenyl]-N-[(1S)-2,2,2-trifluoro-1-methylethyl][1,2,4]triazolo[1,5-a]pyrimidin-7-amine] had an IC50 in the experiment on COLO 205 cells of 113 nM. The “A340 Compound/A340 Control” value in the experiment with MAP-rich tubulin is given as 6.3.
For `C[C@H](Nc1c(-c2c(F)cc(OCCN(C)C)cc2F)c(Cl)nc2ncnn12)C(F)(F)F` [Example 16, 5-Chloro-6-{4-[2-(dimethylamino)ethoxy]-2,6-difluorophenyl}-N-[(1S)-2,2,2-trifluoro-1-methylethyl][1,2,4]triazolo[1,5-a]pyrimidin-7-amine] the same measures were 581 nM and 2.4.
For `C[C@H](Nc1c(-c2c(F)cc(N(C)CCCN(C)C)cc2F)c(Cl)nc2ncnn12)C(F)(F)F` [Example 22, N^1-[4-(5-Chloro-7-{[(1S)-2,2,2-trifluoro-1-methylethyl]amino}[1,2,4]triazolo[1,5-a]pyrimidin-6-yl)-3,5-difluorophenyl]-N′,N^3,N^3-trimethylpropane-1,3-diamine] the same measures were 1670 nM and 1.2.
For `C[C@H](Nc1c(-c2c(F)cc(OCCCCN(C)C)cc2F)c(Cl)nc2ncnn12)C(F)(F)F` [Example 15, 5-Chloro-6-{4-[4-(dimethylamino)butoxy]-2,6-difluorophenyl}-N-[(1S)-2,2,2-trifluoro-1-methylethyl][1,2,4]triazolo[1,5-a]pyrimidin-7-amine] the same measures were 276 nM and 5.5.
Compound `CCNCCCOc1cc(F)c(-c2c(Cl)nc3ncnn3c2N[C@@H](C)C(F)(F)F)c(F)c1` [Example 7, 5-Chloro-6-{4-[3-(ethylamino)propoxy]-2,6-difluorophenyl}-N-[(1S)-2,2,2-trifluoro-1-methylethyl][1,2,4]triazolo[1,5-a]pyrimidin-7-amine] displayed an IC50 with COLO 205 cells of 29 nM. Moreover, the “A340 Compound/A340 Control” value in the experiment on MAP-rich tubulin turned out to be 6.4.
The like results for `C[C@H](Nc1c(-c2c(F)cc(OCCCN3CCN(C)CC3)cc2F)c(Cl)nc2ncnn12)C(F)(F)F` [Example 6, 5-Chloro-6-{2,6-difluoro-4-[3-(4-methylpiperazin-1-yl)propoxy]phenyl}-N-[(1S)-2,2,2-trifluoro-1-methylethyl][1,2,4]triazolo[1,5-a]pyrimidin-7-amine] were, in that order, 155 nM and 6.7.
The compound `C[C@H](Nc1c(-c2c(F)cc(NCCCN(C)C)cc2F)c(Cl)nc2ncnn12)C(F)(F)F` [Example 23, N^1-[4-(5-Chloro-7-{[(1S)-2,2,2-trifluoro-1-methylethyl]amino}[1,2,4]triazolo[1,5-a]pyrimidin-6-yl)-3,5-difluorophenyl]-N^3,N^3-dimethylpropane-1,3-diamine] yielded an IC50 in the experiment with COLO 205 cells of 719 nM. For the same compound, the “A340 Compound/A340 Control” value in the experiment on MAP-rich tubulin is recorded as 4.2.
The like results for `C[C@H](Nc1c(-c2c(F)cc(SCCCN(C)C)cc2F)c(Cl)nc2ncnn12)C(F)(F)F` [Example 18, 5-Chloro-6-(4-{[3-(dimethylamino)propyl]thio}-2,6-difluorophenyl)-N-[(1S)-2,2,2-trifluoro-1-methylethyl][1,2,4]triazolo[1,5-a]pyrimidin-7-amine] were, in that order, 192 nM and 5.8.
